Results on 16 molecules are retold here after publication PMC6273036, “N-Alkoxyphenylhydroxynaphthalenecarboxamides and Their Antimycobacterial Activity” (Molecules, 2016).

≈ marks a conversion by molar mass, not a printed value.

For experiment [1], the system named is M. smegmatis ATCC 700084. Nature of the experiment: In vitro antimycobacterial evaluation (broth dilution micro-method, MIC) against M. smegmatis. In kind it is cell-based. The conditions noted are these: Mycolicibacterium smegmatis, ATCC700084, 72 h; Mycobacterium smegmatis ATCC 700084; MIC = IC90; 3 days incubation, visual. A general note: Dilution methods test growth across graded concentrations, often in twofold steps.

Experiment [2] deals with human monocytic leukemia THP-1 cells. Nature of the experiment: In vitro antiproliferative assay (WST-1). To be noted: THP-1, 24 h, read-out: IC50 (antiproliferative activity).
Protocol: Human monocytic leukemia THP-1 cells were used for in vitro antiproliferative assay. Cells were obtained from the European Collection of Cell Cultures (ECACC, Salisbury, UK) and routinely cultured in RPMI 1640 medium supplemented with 10% fetal bovine serum, 2% L-glutamine, 1% penicillin and streptomycin at 37 °C with 5% CO2. Cells were passaged at approximately one-week intervals. Antiproliferative activity of the compounds was determined using a Water Soluble Tetrazolium Salts-1 (WST-1, 2-(4-iodophenyl)-3-(4-nitrophenyl)-5-(2,4-disulfophenyl)-2H-tetrazolium) assay kit (Roche Diagnostics, Mannheim, Germany) according to the manufacturer’s instructions. The tested compounds were dissolved in DMSO and added in five increasing concentrations (0.37, 1.1, 3.3, 10 and 30 μM) to the cell suspension in the culture RPMI 1640 medium. The maximum concentration of DMSO in the assays never exceeded 0.1%. Subsequently, the cells were incubated for 24 h at 37 °C with 5% CO2. For WST-1 assays, cells were seeded into 96-well plates (5 × 10^4 cells/well in 100 μL culture medium) in triplicate in serum-free RPMI 1640 medium, and measurements were taken 24 h after the treatment with the compounds. The median inhibition concentration values, IC50, were deduced through the production of a dose-response curve. All data were evaluated using GraphPad Prism 5.00 software (GraphPad Software, San Diego, CA, USA).
Experiment [3] deals with Mycobacterium tuberculosis H37Ra ATCC 25177. Nature of the experiment: In vitro antimycobacterial evaluation (alamarBlue, MIC) against M. tuberculosis. In kind it is cell-based. To be noted: 168 h, M. tuberculosis H37Ra ATCC 25177, MIC = 90% or greater (IC90) reduction of growth, 7 days. On the procedure: The evaluation of the in vitro antimycobacterial activity of the compounds was performed against Mycobacterium tuberculosis H37Ra ATCC 25177 (MT), M. kansasii DSM 44162 (MK) and M. smegmatis ATCC 700084 (MS), see Table 1. To lower risk and make manipulation in the laboratory easier, surrogate model pathogens for M. tuberculosis can be used in laboratory studies. Avirulent M. tuberculosis strain H37Ra is very closely related to and has similar pathology as human-infecting M. tuberculosis strains, making it a good model for study especially because of the lower risk for laboratory workers. M. kansasii, the most virulent of the NTM, causes nontuberculous mycobacterial lung infections, which are now very common, and can be indistinguishable from tuberculosis. M. smegmatis is an ideal representative of a fast-growing nonpathogenic microorganism, particularly useful in studying basic cellular processes of special relevance to pathogenic mycobacteria. Therefore additionally M. kansasii and M. smegmatis were chosen as model species for screening of prospective antimycobacterial drugs to control mycobacterial diseases. The potency of the compounds was expressed as the minimum inhibitory concentration (MIC) that is defined for mycobacteria as 90% or greater (IC90) reduction of growth in comparison with the control.
Mycobacterium tuberculosis H37Ra ATCC 25177 was grown in Middlebrook broth (MB), supplemented with Oleic-Albumin-Dextrose-Catalase (OADC) supplement (Becton, Dickinson & Comp., Franklin Lakes, NJ, USA) and mycobactin J (2 μg/mL). At log phase growth, a culture sample (10 mL) was centrifuged at 15,000 rpm/20 min using a bench top centrifuge (Model CR 4-12, Jouan Inc., Winchester, VA, USA). Following the removal of the supernatant, the pellet was washed in fresh Middlebrook 7H9GC broth and re-suspended in fresh, ODAC-supplemented MB (10 mL). The turbidity was adjusted to match McFarland standard No. 1 (3 × 10^8 cfu) with MB broth. A further 1:20 dilution of the culture was then performed in MB broth. The antimicrobial susceptibility of M. tuberculosis was investigated in a 96-well plate format. In these experiments, sterile deionised water (300 µL) was added to all outer-perimeter wells of the plates to minimize evaporation of the medium in the test wells during incubation. Each evaluated compound (100 µL) was incubated with M. tuberculosis (100 µL). Dilutions of each compound were prepared in duplicate. For all synthesized compounds, final concentrations ranged from 1000 μg/mL to 8 μg/mL. All compounds were dissolved in DMSO, and subsequent dilutions were made in supplemented MB. The plates were sealed with parafilm and incubated at 37 °C for 7 days. Following incubation, a 10% addition of alamarBlue (AbD Serotec, Kidlington, UK) was mixed into each well, and readings at 570 nm and 600 nm were taken, initially for background subtraction and subsequently after 24 h re-incubation. The background subtraction is necessary for strongly coloured compounds, where the colour may interfere with the interpretation of any colour change. For non-interfering compounds, a blue colour in the well was interpreted as the absence of growth, and a pink colour was scored as growth.
The minimum inhibitory concentration (MIC) was defined as the lowest concentration of the compound at which no visible bacterial growth was observed, i.e., the MIC is the lowest concentration that prevented a visual colour change from blue to pink. MIC is defined for mycobacteria as 90% or greater (IC90) reduction of growth in comparison with the control. The MIC/IC90 value is routinely and widely used in bacterial assays and is a standard detection limit according to the Clinical and Laboratory Standards Institute (CLSI, www.clsi.org). Rifampicin and isoniazid (Sigma-Aldrich) were used as the standards as they are clinically used antimycobacterial drugs.
On the technique in general: The colour change of resazurin is a common sign of viable cells or microbes.

In experiment [4] the test system is Mycobacterium kansasii DSM 44162. As to the kind of experiment: In vitro antimycobacterial evaluation (broth dilution micro-method, MIC) against M. kansasii. The conditions noted are these: DSM44162, 168 h, M. kansasii DSM 44162, MIC = IC90, 7 days incubation, visual. In kind it is cell-based.

The term MIC denotes the least concentration at which growth counts as inhibited. A lower MIC goes with greater potency. Broadly, the IC50 is the concentration needed to halve the response being measured. As to `O=C(Nc1ccccc1)c1ccc2ccccc2c1O` [Compound 8, 1-Hydroxy-N-phenylnaphthalene-2-carboxamide], the results for the MIC in experiment [1], in experiment [3] and in experiment [4] were 243 µM (≈ 64 µg/mL), 97 µM (≈ 25.5 µg/mL) and 15 µM (≈ 3.95 µg/mL), respectively. In experiment [2], the IC50 was more than 30 µM.

Turning to `CCCOc1ccccc1NC(=O)c1ccc2ccccc2c1O` [Compound 11a, 1-Hydroxy-N-(2-propoxyphenyl)naphthalene-2-carboxamide], the MIC in experiment [1] came out at 796 µM (≈ 256 µg/mL); in experiment [3], 778 µM (≈ 250 µg/mL); in experiment [4], 24 µM (≈ 7.71 µg/mL).

`COc1cccc(NC(=O)c2ccc3ccccc3c2O)c1` [Compound 9b, 1-hydroxy-N-(3-methoxyphenyl)naphthalene-2-carboxamide]: the MIC in experiment [1] is 873 µM (≈ 256 µg/mL); in experiment [3], 852 µM (≈ 250 µg/mL); in experiment [4] it was 873 µM (≈ 256 µg/mL).

For the molecule `CC(C)Oc1ccccc1NC(=O)c1c(O)ccc2ccccc12` [Compound 6a, 2-Hydroxy-N-[2-(prop-2-yloxy)phenyl]naphthalene-1-carboxamide], the minimal inhibitory concentration (MIC) in experiment [1] came to 796 µM (≈ 256 µg/mL); in experiment [3], 31 µM (≈ 9.96 µg/mL); in experiment [4], 99 µM (≈ 31.8 µg/mL). The IC50 in experiment [2] was more than 30 µM.

`COc1ccc(NC(=O)c2ccc3ccccc3c2O)cc1` [Compound 9c, 1-hydroxy-N-(4-methoxyphenyl)naphthalene-2-carboxamide]: the minimal inhibitory concentration (MIC) in experiment [1] was 873 µM (≈ 256 µg/mL); in experiment [3] it was 852 µM (≈ 250 µg/mL); in experiment [4], 873 µM (≈ 256 µg/mL).

Take `CCOc1ccc(NC(=O)c2ccc3ccccc3c2O)cc1` [Compound 10c, N-(4-Ethoxyphenyl)-1-hydroxynaphthalene-2-carboxamide]: the minimal inhibitory concentration (MIC) in experiment [1] is 832 µM (≈ 256 µg/mL); in experiment [3] it was 813 µM (≈ 250 µg/mL); in experiment [4], 832 µM (≈ 256 µg/mL).

As to `COc1ccc(NC(=O)c2c(O)ccc3ccccc23)cc1` [Compound 2c, 2-hydroxy-N-(4-methoxyphenyl)naphthalene-1-carboxamide], in experiment [3], the minimal inhibitory concentration (MIC) worked out at 852 µM (≈ 250 µg/mL).

As to `CCOc1ccccc1NC(=O)c1ccc2ccccc2c1O` [Compound 10a, N-(2-Ethoxyphenyl)-1-hydroxynaphthalene-2-carboxamide], the MIC in experiment [1] came to 832 µM (≈ 256 µg/mL); in experiment [3], 813 µM (≈ 250 µg/mL); in experiment [4], 832 µM (≈ 256 µg/mL).

Regarding `COc1cccc(NC(=O)c2c(O)ccc3ccccc23)c1` [Compound 2b, 2-hydroxy-N-(3-methoxyphenyl)naphthalene-1-carboxamide], the MIC in experiment [3] was determined as 852 µM (≈ 250 µg/mL).

For `COc1ccccc1NC(=O)c1c(O)ccc2ccccc12` [Compound 2a, 2-hydroxy-N-(2-methoxyphenyl)naphtha-lene-1-carboxamide], the values for the MIC in experiment [1], in experiment [3] and in experiment [4] were 873 µM (≈ 256 µg/mL), 852 µM (≈ 250 µg/mL) and 873 µM (≈ 256 µg/mL), respectively.

Regarding `CC(C)Oc1ccccc1NC(=O)c1ccc2ccccc2c1O` [Compound 13a, 1-Hydroxy-N-[2-(prop-2-yloxy)phenyl]naphthalene-2-carboxamide], the results for the MIC in experiment [1], in experiment [3] and in experiment [4] were 796 µM (≈ 256 µg/mL), 778 µM (≈ 250 µg/mL) and 796 µM (≈ 256 µg/mL), respectively.

As for `NNC(=O)c1ccncc1` [INH, isoniazid, reference compound], the IC50 in experiment [2] was more than 30 µM. Besides, in experiment [3], inhibition of growth (MIC) required 58 µM (≈ 7.95 µg/mL).

Consider `COc1ccccc1NC(=O)c1ccc2ccccc2c1O` [Compound 9a, 1-hydroxy-N-(2-methoxyphenyl)naphtha-lene-2-carboxamide], for which the results for the MIC in experiment [1], in experiment [3] and in experiment [4] were 873 µM (≈ 256 µg/mL), 852 µM (≈ 250 µg/mL) and 873 µM (≈ 256 µg/mL), respectively.

As to `CCOc1cccc(NC(=O)c2c(O)ccc3ccccc23)c1` [Compound 3b, N-(3-Ethoxyphenyl)-2-hydroxynaphthalene-1-carboxamide], the MIC in experiment [1] was 416 µM (≈ 128 µg/mL); in experiment [3], 813 µM (≈ 250 µg/mL); in experiment [4], 208 µM (≈ 63.9 µg/mL).

As for `CCCCOc1ccccc1NC(=O)c1ccc2ccccc2c1O` [Compound 12a, N-(2-Butoxyphenyl)-1-hydroxynaphthalene-2-carboxamide], the MIC in experiment [1] is 763 µM (≈ 256 µg/mL); in experiment [3] it was 745 µM (≈ 250 µg/mL); in experiment [4], 763 µM (≈ 256 µg/mL).

For the molecule `O=C(Nc1ccccc1)c1c(O)ccc2ccccc12` [Compound 1, 2-Hydroxy-N-phenylnaphthalene-1-carboxamide], the IC50 in experiment [2] was more than 30 µM. Also, the MIC stood at 94 µM (≈ 24.7 µg/mL) in experiment [3] and 15 µM (≈ 3.95 µg/mL) in experiment [4].
